Data set [1] is described as follows: Temperature changes of the powder X-ray diffraction patterns (crystal transition, T-G curves). Format: physicochemical. Particulars: from T-G curves (FIG. 10). As to the method:
Measurement of the Temperature Changes of the Powder X-Ray Diffraction Patterns of the α-Type, γ-Type, ε-Type, and η-Type Crystals
• (1) The measuring method and conditions
The measurement was conducted in the same conditions as those of the above measurement of the powder X-ray diffraction patterns.

Data set [2] is described as follows: Water adsorption of the crystals (vapor adsorption isotherm). To be noted: 25° C. Format: physicochemical. The protocol:
The Measuring Method of the Water Adsorption of the Crystals (Creation of the Vapor Adsorption Isotherm)
• (1) The measuring method of water adsorption amount and conditions
100 mg of each of the above obtained α-type, γ-type and ε-type crystals were weighed and vacuum dried at 50° C. overnight. Then, under the constant temperature of 25° C., the water adsorption amount of the crystals was determined with a full automatic vapor adsorption measuring apparatus (BELSORP-18, BEL Japan, Inc.) (Mitsuiki et al., J. Agric. Food Chem., vol. 46, no. 9, pp. 3528-3534 (1998)). • (2) The measurement results

Structures are written as SMILES.

Regarding `COC(=O)[C@H](Cc1ccc(-n2c(=O)c3cc(N(C)C)ccc3n(C)c2=O)cc1)NC(=O)c1c(Cl)cccc1Cl` [α-type crystal], the “order of thermodynamic stability of crystal forms at room temperature” value in data set [1] (room temperature) is “α-type>η-type>γ-type>ε-type>θ-type”. Also, in data set [2] (listed as α-type), the “water adsorption (in words)” value was “low water adsorption”.
For the molecule `COC(=O)[C@H](Cc1ccc(-n2c(=O)c3cc(N(C)C)ccc3n(C)c2=O)cc1)NC(=O)c1c(Cl)cccc1Cl` [γ-type crystal], the “water adsorption (in words)” value in data set [2] (listed as γ-type) was “particularly low water adsorption”.
For the molecule `COC(=O)[C@H](Cc1ccc(-n2c(=O)c3cc(N(C)C)ccc3n(C)c2=O)cc1)NC(=O)c1c(Cl)cccc1Cl` [ε-type crystal], in data set [2] (listed as ε-type), the “water adsorption (in words)” value is recorded as “particularly low water adsorption”.
As for `COC(=O)[C@H](Cc1ccc(-n2c(=O)c3cc(N(C)C)ccc3n(C)c2=O)cc1)NC(=O)c1c(Cl)cccc1Cl` [θ-type crystal], the “thermodynamic stability in high temperature range” value in data set [1] (high temperature range) was “stably exists”.

Values taken from US7951942B2, “Crystals of phenylalanine derivatives and production methods thereof” (Ajinomoto Co., Inc., priority 2003, dated 2011).
